Test results taken from patent US20050256034A1, “Dioxolane analogs for improved inter-cellular delivery” (priority 2000, published 2005).
Where two headings read alike, the source gives them in different places.

Assay: 3H-Thymidine Incorporation Assay (24 hr drug, wash, another 48 hr; 72 hr assay)
Format: cell-based
Conditions: for Resistance Factor = Ratio of dCK- on Wild-type CCRF-CEM / Factor (Resistance Factor = Ratio of dCK- on Wild-type CCRF-CEM): ratio of IC50 CEM/dCK- to IC50 CCRF-CEM; for Factor (Resistance Factor = Ratio of dCK- on Wild-type CCRF-CEM): 24 h exposure
[1] = CCRF-CEM, read-out: IC50 (3H-TdR incorporation at 72 hr) CCRF-CEM 24 h, CCRF-CEM T-cell leukemia, 24 hr exposure to drug, wash, another 48 hr
[2] = CCRF-CEM, read-out: IC50 (3H-TdR incorporation at 72 hr) CEM/dCK- 24 h, CEM/dCK- (CCRF-CEM deoxycytidine kinase-deficient), 24 hr exposure to drug, wash, another 48 hr
[3] = MCF7, read-out: IC50 (3H-TdR incorporation at 72 hr) MCF-7 24 h, MCF-7 human breast carcinoma, 24 hr exposure to drug, wash, another 48 hr
[4] = NCI-H460, read-out: IC50 (3H-TdR incorporation at 72 hr) H-460 24 h, H-460 human lung carcinoma, 24 hr exposure to drug, wash, another 48 hr
[5] = SF-268, read-out: IC50 (3H-TdR incorporation at 72 hr) SF-268 24 h, SF-268 human central nervous system tumor, 24 hr exposure to drug, wash, another 48 hr

Compound | Resistance Factor = Ratio of dCK- on Wild-type CCRF-CEM | Factor (Resistance Factor = Ratio of dCK- on Wild-type CCRF-CEM) | further results
CCOC(OCC)(OC[C@H]1OC[C@@H](n2ccc(N)nc2=O)O1)c1ccccc1 [Compound 170, 4-AMINO-1-[2-(DIETHOXY-PHE- NYL-METHOXYMETHYL)-[1,3]DI- OXOLAN-4-YL]-1H-PYRI- MIDIN-2-ONE] | >476 |  | IC50 [1]: 0.21 µM; IC50 [2]: > 100 µM; IC50 [3]: 0.49 µM; IC50 [4]: 0.63 µM; IC50 [5]: 1 µM
Nc1ccn([C@@H]2CO[C@H](COC(=O)CCCCCNCc3ccccc3)O2)c(=O)n1 [Compound 84, 6-Benzylamino-hexanoic acid 4-(4-amino-2-oxo-2H-pyri-midin-1-yl)-[1,3]di-oxolan-2-ylmethyl ester] |  | 5,000 | IC50 (CCRF-CEM, read-out: IC50 in μM (3H-TdR incorporation at 72 hr) CEM/dCK- 24 h, CEM/dCK- (CCRF-CEM deoxycytidine kinase-deficient), 24 h exposure to drug, wash, another 48 hr): 60 µM
O=C(NCc1ccccc1)Nc1ccn([C@@H]2CO[C@H](COC(=O)NCc3ccccc3)O2)c(=O)n1 [Compound 109, BENZYL-CARBAMIC ACID 4-[4-(3-BEN- ZYL-UREIDO)-2-OX- O-2#H!-PYRIMIDIN-1-YL]-[1,3]DI- OXOLAN-2-YLMETHYL ESTER] |  | >100 | 
Nc1ccn([C@@H]2CO[C@H](COC(=O)c3ccc(Cl)c(Cl)c3)O2)c(=O)n1 [Compound 187, 3,4-DICHLORO-BENZOIC ACID 4-(4-AMINO-2-OXO-2H-PYRI- MIDIN-1-YL)-[1,3]DI- OXOLAN-2-YL METHYL ESTER] |  |  | IC50 [4]: 0.0014 µM; IC50 (read-out: IC50 (3H-TdR incorporation at 72 hr) CCRF-CEM 24 h, CCRF-CEM T-cell leukemia, 24 hr exposure to drug, wash, another 48 hr): 0.0016 µM; IC50 (read-out: IC50 (3H-TdR incorporation at 72 hr) H-460 24 h, H-460 human lung carcinoma, 24 hr exposure to drug, wash, another 48 hr): 0.0011 µM; IC50 (read-out: IC50 (3H-TdR incorporation at 72 hr) MCF-7 24 h, MCF-7 human breast carcinoma, 24 hr exposure to drug, wash, another 48 hr): 0.0051 µM
O=C(Nc1ccn([C@@H]2CO[C@H](COC(=O)OCc3ccc([N+](=O)[O-])cc3)O2)c(=O)n1)OCc1ccc([N+](=O)[O-])cc1 [Compound 181, CARBONIC ACID 4-NITRO-BENZYL ESTER 4-[4-(4-NITRO-BENZYL- OXYCARBONYLAMINO)-2-OX- O-2H-PYRIMIDIN-1-YL]-[1,3]DI- OXOLAN-2-YLMETHYL ESTER] | >2700 |  | IC50 [1]: 0.037 µM; IC50 [2]: > 100 µM; IC50 [3]: 0.49 µM; IC50 [4]: 0.14 µM; IC50 [5]: 0.17 µM
CC(C)CCCCC(=O)Nc1ccn([C@@H]2CO[C@H](COC(=O)CCCCC(C)C)O2)c(=O)n1 [Compound 276, 6-METHYL-HEPTANOIC ACID 4-[4-(6-METHYL-HEPTANOYL- AMINO)-2-OXO-2H-PYRI- MIDIN-1-YL]-[1,3]DI- OXOLAN-2-YL METHYL ESTER] |  | 957 | IC50 (CCRF-CEM, read-out: IC50 in μM (3H-TdR incorporation at 72 hr) CCRF-CEM 24 h, CCRF-CEM T-cell leukemia, 24 h exposure to drug, wash, another 48 hr): 0.028 µM; IC50 (MCF7, read-out: IC50 in μM (3H-TdR incorporation at 72 hr) MCF-7 (72 h), MCF-7 human breast carcinoma, 72 h exposure): 0.0017 µM; IC50 (NCI-H460, read-out: IC50 in μM (3H-TdR incorporation at 72 hr) H-460 (72 h), H-460 human lung carcinoma, 72 h exposure): 0.025 µM; IC50 (SF-268, read-out: IC50 in μM (3H-TdR incorporation at 72 hr) SF-268 (72 h), SF-268 human central nervous system tumor, 72 h exposure): 0.018 µM
CC(C)(C)OC(=O)N(CCCCC(=O)Nc1ccn([C@@H]2CO[C@H](COC(=O)CCCCN(Cc3ccccc3)C(=O)OC(C)(C)C)O2)c(=O)n1)Cc1ccccc1 [Compound 114, 5-(BENZYL-TERT-BUTOXY- CARBONYL-AMINO)-PENTANOIC ACID 4-{4-[5-(BENZYL-TERT-BUTOXY- CARBONYL-AMINO)-PENTANOYL- AMINO]-2-OXO-2H!PYRI- MIDIN-1-YL)-[1,3]DI- OXOLAN-2-YLMETHYL ESTER] |  | 500 | 
Nc1ccn([C@@H]2CO[C@H](COC(=O)c3ccccc3Cc3ccccc3)O2)c(=O)n1 [Compound 220, BIPHENYL-2-CARBOXYLIC ACID 4-(4-AMINO-2-OXO-2H-PYRI- MIDIN-1-YL)-[1,3]DI- OXOLAN-2-YL METHYL ESTER] | > 28600 |  | 
Nc1ccn([C@@H]2CO[C@H](COC/C=C/c3ccccc3)O2)c(=O)n1.O=C(O)C(F)(F)F [Compound 90, 4-AMINO-1-[2-(3-CIN- NAMYLOXYMETHYL)-[1,3]DI- OXOLAN-4-YL]-1H-PYRI- MIDIN-2-ONE TRIFLUOROACETATE SALT] |  | 1.5 | 
CCCCCCNC(=O)Nc1ccn([C@@H]2CO[C@H](COC(=O)NCCCCCC)O2)c(=O)n1 [Compound 119, HEXYL-CARBAMIC ACID 4-[4-(3-HEX- YL-UREIDO)-2-OX- O-2#H!-PYRIMIDIN-1-YL]-[1,3]DI- OXOLAN-2-YLMETHYL ESTER] |  | ˜2 | 
COC(=O)CCCC(=O)Nc1ccn([C@@H]2CO[C@H](CO)O2)c(=O)n1 [Compound 81, 4-[1-(2-HYDROXYMETHYL-[1,3]DI- OXOLAN-4-YL)-2-OX- O-1,2-DIHYDRO-PYRI- MIDIN-4-YL- CARBAMOYL]-BUTYRIC ACID METHYL ESTER] |  | 83 | 
CC(C)(C)OC(=O)N(CCCCC(C)(C)C(=O)Nc1ccn([C@@H]2CO[C@H](CO)O2)c(=O)n1)Cc1ccccc1 [Compound 125, Benzyl-{5-[1-(2-hydroxy-methyl-[1,3]di-oxolan-4-yl)-2-ox-o-1,2-dihydro-pyri-midin-4-ylcarba-moyl]-5-methyl-hexyl}-carbamic acid tert-butyl ester] |  | 97 | 
CC(C)(C)OC(=O)NCCCCCC(=O)Nc1ccn([C@@H]2CO[C@H](CO)O2)c(=O)n1 [Compound 193, {5-[1-(2-HYDROXYMETHYL-[1,3]DI- OXOLAN-4-YL)-2-OX- O-1,2-DIHYDRO-PYRI- MIDIN-4-YLCARBA- MOYL]-PENTYL}-CARBAMIC ACID TERT-BUTYL ESTER] | > 1700 |  | 
CCCCCCNC(=O)OC[C@H]1OC[C@@H](n2ccc(N)nc2=O)O1 [Compound 121, HEXYL-CARBAMIC ACID 4-(4-A- MINO-2-OXO-2H-PYRI- MIDIN-1-YL)-[1,3]DI- OXOLAN-2-YLMETHYL ESTER] |  | >6 | 
CC(C)(C)OC(=O)N(CCCCC(=O)Nc1ccn([C@@H]2CO[C@H](CO)O2)c(=O)n1)Cc1ccccc1 [Compound 115, BENZYL-{4-[1-(2-HYDROXY- METHYL-[1,3]DI- OXOLAN-4-YL)-2-OX- O-1,2-DIHYDRO-PYRI- MIDIN-4-YLCARBA- MOYL]-BUTYL}-CARBAMIC ACID TERT!-BUTYL ESTER] |  | >500 | 
COc1ccc(C(OC)(OC)OC[C@H]2OC[C@@H](n3ccc(N)nc3=O)O2)cc1 [Compound 195, 4-AMINO-1-{2-[DI- METHOXY-(4-METHOXY-PHE- NYL)-METHOXYMETHYL]-[1,3]DI- OXOLAN-4-YL}-1#H!-PYRI- MIDIN-2-ONE] | > 1560 |  | 
CCCCCCNC(=O)Nc1ccn([C@@H]2CO[C@H](CO)O2)c(=O)n1 [Compound 120, 1-HEXYL-3-[1-(2-HY- DROXYMETHYL-[1,3]DI- OXOLAN-4-YL)-2-OX- O-1,2-DIHYDRO-PYRI- MIDIN-4-YL]-UREA] |  | 1 | 
O=C(Nc1ccn([C@@H]2CO[C@H](COC(=O)Oc3ccccc3)O2)c(=O)n1)Oc1ccccc1 [Compound 43, CARBONIC ACID 4-(2-OXO-4-PHENOXY- CARBONYLAMINO-2H-PYRI- MIDIN-1-YL)-[1,3]DI- OXOLAN-2-YLMETH- YL ESTER PHENYL ESTER] |  | 1,000,000 | 
CC(C(=O)OC[C@H]1OC[C@@H](n2ccc(N)nc2=O)O1)c1ccccc1 (stereo partly drawn) [Compound 69, (2S,4S)-2-(2″-METHYL- PHENYLACETOXY)METH- YL-4-CYTOSIN-1′-YL-1,3-DI- OXOLANE] |  |  | IC50 (NCI-H460, read-out: IC50 in μM (3H-TdR incorporation at 72 hr) H-460 24 h, H-460 human lung carcinoma, 24 h exposure to drug, wash, another 48 hr): 0.045 µM
CC(=O)Oc1ccc(COC(=O)Nc2ccn([C@@H]3CO[C@H](COC(=O)OCc4ccc(OC(C)=O)cc4)O3)c(=O)n2)cc1 [Compound 202, Acetic acid 4-(1-{2-[4-(Acetyloxy)benzyloxycarbonyloxymethyl]-[1,3]dioxolan-4-yl}2-oxo-1,2-dihydropyrimidin-4-ylcarbamoyloxymethyl)-phenyl ester] | > 1000 |  | 
Nc1ccn([C@@H]2CO[C@H](CO[C@@H]3O[C@H](CO)[C@@H](O)[C@H]3O)O2)c(=O)n1.O=C(O)C(F)(F)F [Compound 85, 4-AMINO-1-[2-(3,4-DI- HYDROXY-5-HYDROXY- METHYL-TETRA- HYDROFURAN-2-YLOXY- METHYL)-[1,3]DI- OXOLAN-4-YL]-1HPYIMI- DIN-2-ONE, TRIFLUOROACETIC ACID SALT] |  | 38 | 
COC(OC)(OC)OC[C@H]1OC[C@@H](n2ccc(N)nc2=O)O1 [Compound 177, 4-AMINO-1-(2-TRI- METHOXYMETHOXYMETHYL-[1,3]DI- OXOLAN-4-YL)-1H-PYRI- MIDIN-2-ONE] | > 1050 |  | 
